The results in this text go back to patent US20240199605A1, “SMALL MOLECULAR INHIBITORS OF NF-kB INDUCING KINASE” (Janssen Pharmaceutica NV, priority 2019, published 2024).

The subject of test [1] is p-IKKα levels in L363 (NIK translocated multiple myeloma) cells. Kind of test: Effect of compounds on p-IKKα levels in L363 cells (AlphaLISA SureFire Ultra). It counts as cell-based, human. Conditions: Homo sapiens, L-363, 6 h, BAFF stimulated, MG132, 6 h, average of values, read-out: Assay 2 IC50. The method, boiled down:
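Inhibition of p-IKKα (Ser176/180) read by AlphaLISA after 6 h, 37 °C compound exposure (11-point 1:3 series, 0.3% DMSO) of L363 cells pre-incubated overnight ± 250 ng/ml BAFF and plated ± BAFF ± 10 μM MG132. Normalised to BAFF/MG132/DMSO and unstimulated controls; IC50 by sigmoidal fitting, duplicates.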
(In general: In Alpha technology, singlet oxygen from a donor bead excites a nearby acceptor bead.)

The target of test [2] is recombinant human NF-kappaB-inducing kinase (NIK/MAP3K14) (Homo sapiens (Human), UniProt Q99558). Briefly: Inhibition of auto-phosphorylation of recombinant human NIK/MAP3K14 (AlphaScreen). It counts as biochemical. The settings on record: NIK auto-phosphorylation, 5 μM ATP, 1 nM NIK, 2 h at 25° C.; average of values. The method, boiled down: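 AlphaScreen read-out (anti-phospho-IKK Ser176/180 antibody, Protein A acceptor and glutathione donor beads) of NIK auto-phosphorylation. Reaction: 1 nM enzyme, 5 μM ATP, Tris pH 7.5 buffer with Mg2+ and vanadate, 2 h at 25° C., final DMSO 0.7%. IC50 came from a sigmoidal curve fit.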
Chain of recombinant human NF-kappaB-inducing kinase (NIK/MAP3K14) (Q99558 whole entry): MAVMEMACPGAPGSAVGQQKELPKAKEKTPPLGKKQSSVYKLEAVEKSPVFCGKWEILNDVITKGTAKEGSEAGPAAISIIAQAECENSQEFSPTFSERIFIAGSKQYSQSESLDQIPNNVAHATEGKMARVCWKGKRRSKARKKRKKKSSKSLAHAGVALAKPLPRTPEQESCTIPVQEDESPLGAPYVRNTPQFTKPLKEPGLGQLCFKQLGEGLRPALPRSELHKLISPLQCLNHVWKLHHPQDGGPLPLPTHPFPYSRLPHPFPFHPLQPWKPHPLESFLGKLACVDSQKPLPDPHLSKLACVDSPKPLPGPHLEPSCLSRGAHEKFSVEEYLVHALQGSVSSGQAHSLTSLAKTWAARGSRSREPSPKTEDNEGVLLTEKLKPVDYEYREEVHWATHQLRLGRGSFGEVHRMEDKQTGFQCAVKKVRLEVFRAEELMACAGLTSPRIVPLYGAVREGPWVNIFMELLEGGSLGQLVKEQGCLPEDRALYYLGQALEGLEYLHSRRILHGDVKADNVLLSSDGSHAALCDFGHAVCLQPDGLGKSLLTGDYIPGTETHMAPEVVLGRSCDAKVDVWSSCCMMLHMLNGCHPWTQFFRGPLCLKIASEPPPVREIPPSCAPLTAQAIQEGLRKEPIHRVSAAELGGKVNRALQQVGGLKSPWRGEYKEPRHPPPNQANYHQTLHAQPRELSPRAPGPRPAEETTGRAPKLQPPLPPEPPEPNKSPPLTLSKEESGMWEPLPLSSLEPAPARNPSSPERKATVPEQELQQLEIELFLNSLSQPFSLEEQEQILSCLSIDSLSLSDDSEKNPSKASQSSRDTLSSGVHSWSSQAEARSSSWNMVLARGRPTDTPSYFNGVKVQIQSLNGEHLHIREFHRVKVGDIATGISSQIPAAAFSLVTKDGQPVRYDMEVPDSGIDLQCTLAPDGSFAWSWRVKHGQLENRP

One may read the IC50 as the point on the concentration scale where inhibition reaches its midpoint.

Turning to `CN1CC[C@@](O)(C#Cc2cccc(-c3ccc4nc(C5CC5)nc(N)c4n3)c2)C1=O` [Example 175, (R)-3-((3-(4-Amino-2-cyclopropylpyrido[3,2-d]pyrimidin-6-yl)phenyl)ethynyl)-3-hydroxy-1-methylpyrrolidin-2-one], the IC50 amounted to 230 nM in test [1] and 2.4 nM in test [2].

For the compound `Cc1ccc(C#C[C@]2(O)CCN(C)C2=O)cc1-c1nc2c(N)ncnc2s1` [Example 10, (R)-3-((3-(7-Aminothiazolo[5,4-d]pyrimidin-2-yl)-4-methylphenyl)ethynyl)-3-hydroxy-1-methylpyrrolidin-2-one], the IC50 in test [1] is 8.1 nM; in test [2] it was at most 0.5 nM.

As for `CCNc1ncnc2ccc(-c3cccc(C#C[C@]4(O)CCN(C)C4=O)c3)nc12` [Example 227, (R)-3-((3-(4-(Ethylamino)pyrido[3,2-d]pyrimidin-6-yl)phenyl)ethynyl)-3-hydroxy-1-methylpyrrolidin-2-one], the concentration for half-maximal inhibition (IC50) in test [1] was 540 nM; in test [2], 23 nM.

In the case of `[2H]c1nc(N)c2nc(-c3cccc(C#C[C@@]4(O)C(=O)N(C)[C@@H]5C[C@@H]54)c3)ccc2n1` [Example 276, (1R,4R,5S)-4-((3-(4-Aminopyrido[3,2-d]pyrimidin-6-yl-2-d)phenyl)ethynyl)-4-hydroxy-2-methyl-2-azabicyclo[3.1.0]hexan-3-one], the IC50 is 8.9 nM in test [1] and at most 0.5 nM in test [2].

In the case of `CN1CC[C@@](O)(C#Cc2cccc(N3CCc4ccnc(N)c4C3)c2)C1=O` [Example 20, (R)-3-((3-(8-Amino-3,4-dihydro-2,7-naphthyridin-2(1H)-yl)phenyl)ethynyl)-3-hydroxy-1-methylpyrrolidin-2-one], the IC50 in test [1] came to 55 nM; in test [2], 1.2 nM.

Regarding `CN1CC[C@@](O)(C#Cc2cccc(-c3ncc4c(-c5cnn(CCCC#N)c5)cnc(N)c4n3)c2)C1=O` [Example 140, (R)-4-[4-[8-Amino-2-[3-[2-(3-hydroxy-1-methyl-2-oxo-pyrrolidin-3-yl)ethynyl]phenyl]pyrido[3,4-d]pyrimidin-5-yl]pyrazol-1-yl]butanenitrile], the values for the IC50 in test [1] and in test [2] were 6.2 nM and at most 0.5 nM, respectively.

Take `Cc1nc(N)c2nc(-c3cccc(C#C[C@@](C)(O)c4scnc4C)c3)ccc2n1` [Example 163, (R)-4-(3-(4-Amino-2-methylpyrido[3,2-d]pyrimidin-6-yl)phenyl)-2-(4-methylthiazol-5-yl)but-3-yn-2-ol]: the IC50 in test [1] was over 5000 nM; in test [2] it was 350 nM.

In the case of `Cc1nc(-c2cccc(C#Cc3ccn[nH]3)c2)nc2c(N)nccc12` [Example 107, 2-(3-((1H-Pyrazol-5-yl)ethynyl)phenyl)-4-methylpyrido[3,4-d]pyrimidin-8-amine], the IC50 in test [1] is over 5000 nM; in test [2], 52 nM.

Turning to `Cc1nc(N)c2nc(-c3cccc(C#C[C@@]4(O)C(=O)N(C)[C@@H]5C[C@@H]54)c3)ccc2n1` [Example 273, (1R,4R,5S)-4-((3-(4-Amino-2-methylpyrido[3,2-d]pyrimidin-6-yl)phenyl)ethynyl)-4-hydroxy-2-methyl-2-azabicyclo[3.1.0]hexan-3-one], the IC50 came out at 27 nM in test [1] and 2.7 nM in test [2].

In the case of `Cc1nc(N)c2nc(-c3cccc(C#C[C@](C)(O)c4cscn4)c3)ccc2n1` [Example 209, (S)-4-[3-(4-Amino-2-methyl-pyrido[3,2-d]pyrimidin-6-yl)phenyl]-2-thiazol-4-yl-but-3-yn-2-ol], the IC50 was over 5000 nM in test [1] and 110 nM in test [2].

On to `Cc1ccc(C#C[C@@](C)(O)c2nccs2)cc1-c1ncc2ccnc(N)c2n1` [Example 69, (R)-4-(3-(8-Aminopyrido[3,4-d]pyrimidin-2-yl)-4-methylphenyl)-2-(thiazol-2-yl)but-3-yn-2-ol], for which the IC50 in test [1] came to 150 nM; in test [2], 1 nM.

Regarding `CN1CC[C@@](O)(C#Cc2cccc(-c3nc(C(F)(F)F)c4ccnc(N)c4n3)c2)C1=O` [Example 38, (R)-3-((3-(8-Amino-4-(trifluoromethyl)pyrido[3,4-d]pyrimidin-2-yl)phenyl)ethynyl)-3-hydroxy-1-methylpyrrolidin-2-one], the values for the IC50 in test [1] and in test [2] were 40 nM and 0.7 nM, respectively.

For `Cc1cc(-c2cccc(C#C[C@]3(O)CCN(C)C3=O)c2)nc2c(C)ncnc12` [Example 250, (R)-3-((3-(4,8-Dimethylpyrido[3,2-d]pyrimidin-6-yl)phenyl)ethynyl)-3-hydroxy-1-methylpyrrolidin-2-one], the IC50 was 130 nM in test [1] and 7.9 nM in test [2].

In the case of `CN1CC[C@@](O)(C#Cc2cccc(-c3ncc4c(CN5CCCC5)cnc(N)c4n3)c2)C1=O` [Example 133, (R)-3-[2-[3-[8-Amino-5-(pyrrolidin-1-ylmethyl)pyrido[3,4-d]pyrimidin-2-yl]phenyl]ethynyl]-3-hydroxy-1-methyl-pyrrolidin-2-one], the values for the IC50 in test [1] and in test [2] were 400 nM and 6.8 nM, respectively.

As to `CCOc1ncnc2ccc(-c3cccc(C#C[C@]4(O)CCN(C)C4=O)c3)nc12` [Example 24, (R)-3-((3-(4-Ethoxypyrido[3,2-d]pyrimidin-6-yl)phenyl)ethynyl)-3-hydroxy-1-methylpyrrolidin-2-one], the IC50 in test [1] is 4030 nM; in test [2] it was 260 nM.

With `CN1CC[C@@](O)(C#Cc2cccc(-c3ccc4ncnc(N(C)C)c4n3)c2)C1=O` [Example 25, (R)-3-((3-(4-(Dimethylamino)pyrido[3,2-d]pyrimidin-6-yl)phenyl)ethynyl)-3-hydroxy-1-methylpyrrolidin-2-one], the IC50 is 180 nM in test [1] and 2.1 nM in test [2].

Regarding `Cc1cc(C#C[C@]2(O)CCN(C)C2=O)cc(-c2ncc3ccnc(N)c3n2)c1` [Example 42, (R)-3-((3-(8-Aminopyrido[3,4-d]pyrimidin-2-yl)-5-methylphenyl)ethynyl)-3-hydroxy-1-methylpyrrolidin-2-one], the IC50 in test [1] was 29 nM; in test [2], 1.3 nM.

Take `Cc1ccc(C#C[C@]2(O)CCN(C)C2=O)cc1-c1ncc2c(C)cnc(N)c2n1` [Example 65, (R)-3-[2-[3-(8-Amino-5-methyl-pyrido[3,4-d]pyrimidin-2-yl)-4-methyl-phenyl]ethynyl]-3-hydroxy-1-methyl-pyrrolidin-2-one]: the IC50 in test [1] is 48 nM; in test [2], 1 nM.

For the compound `Cc1cc(-c2cccc(C#C[C@]3(O)CCN(C)C3=O)c2)cc2c(N)ncnc12` [Example 110, (R)-3-((3-(4-Amino-8-methylquinazolin-6-yl)phenyl)ethynyl)-3-hydroxy-1-methylpyrrolidin-2-one], the IC50 in test [1] was 11 nM; in test [2], at most 0.5 nM.

Regarding `CN1CC[C@@](O)(C#Cc2cccc(-c3ccc4nc[nH]c(=O)c4n3)c2)C1=O` [Example 221, (R)-6-(3-((3-Hydroxy-1-methyl-2-oxopyrrolidin-3-yl)ethynyl)phenyl)pyrido[3,2-d]pyrimidin-4(3H)-one], the figures for the IC50 in test [1] and in test [2] were over 5000 nM and 630 nM, respectively.

Take `Cc1nc(-c2cccc(C#C[C@]3(O)CCN(CC(F)(F)F)C3=O)c2)nc2c(N)nccc12` [Example 92, (R)-3-[2-[3-(8-Amino-4-methyl-pyrido[3,4-d]pyrimidin-2-yl)phenyl]ethynyl]-3-hydroxy-1-(2,2,2-trifluoroethyl)pyrrolidin-2-one]: the IC50 in test [1] is 480 nM; in test [2] it was 6.6 nM.

As to `CN1CC[C@@](O)(C#Cc2cccc(-c3cc(C4CC4)c4ncnc(N)c4n3)c2)C1=O` [Example 302, (R)-3-((3-(4-Amino-8-cyclopropylpyrido[3,2-d]pyrimidin-6-yl)phenyl)ethynyl)-3-hydroxy-1-methylpyrrolidin-2-one], the results for the half-inhibitory concentration (IC50) in test [1] and in test [2] were 4.5 nM and at most 0.5 nM, respectively.

Consider `Cc1nc(N)c2nc(-c3cccc(C#C[C@@](C)(O)c4ccccn4)c3)ccc2n1` [Example 190, (R)-4-[3-(4-Amino-2-methyl-pyrido[3,2-d]pyrimidin-6-yl)phenyl]-2-(2-pyridyl)but-3-yn-2-ol], for which the IC50 is over 5000 nM in test [1] and 1830 nM in test [2].

Regarding `CN1CC[C@@](O)(C#Cc2cccc(-c3cc(NC4CC4)c4ncnc(N)c4n3)c2)C1=O` [Example 298, (R)-3-[2-[3-[4-Amino-8-(cyclopropylamino)pyrido[3,2-d]pyrimidin-6-yl]phenyl]ethynyl]-3-hydroxy-1-methyl-pyrrolidin-2-one], the values for the IC50 in test [1] and in test [2] were 24 nM and 0.8 nM, respectively.

As to `CN1CC[C@@](O)(C#Cc2cccc(-c3nc4c(N)ncnc4n3C)c2)C1=O` [Example 143, (R)-3-((3-(6-Amino-9-methyl-9H-purin-8-yl)phenyl)ethynyl)-3-hydroxy-1-methylpyrrolidin-2-one], the IC50 was over 5000 nM in test [1] and 420 nM in test [2].

As for `CN1CC[C@@](O)(C#Cc2cccc(-c3ccc4c(CN5CCCC5)cnc(N)c4n3)c2)C1=O` [Example 171, (R)-3-[2-[3-[8-Amino-5-(pyrrolidin-1-ylmethyl)-1,7-naphthyridin-2-yl]phenyl]ethynyl]-3-hydroxy-1-methyl-pyrrolidin-2-one], the IC50 was 180 nM in test [1] and 4 nM in test [2].

In the case of `Cc1ccc(-c2nc3c(N)ncnc3s2)cc1C#C[C@]1(O)CCN(C)C1=O` [Example 152, (R)-3-((5-(7-Aminothiazolo[5,4-d]pyrimidin-2-yl)-2-methylphenyl)ethynyl)-3-hydroxy-1-methylpyrrolidin-2-one], the IC50 came to 200 nM in test [1] and 3.8 nM in test [2].
